Results reported in ChEMBL document CHEMBL1128057, “Aryl-fused sphingolipids as novel PKC inhibitors with topical antiinflammatory activity” (Bioorg Med Chem Lett, 1995).

How the values were obtained:
Protein kinase C (PKC) [1] = experiment: Inhibitory concentration required against Protein kinase C (isolated from rat brain) in PKC assay performed with 4 ug phosphatidyl serine:diacylglycerol (2:1)
Protein kinase C (PKC) [2] = experiment: Inhibition of Protein kinase C of rat brain using phosphatidyl serine: di-acyl glycerol (2:1)
Mus musculus = organism: Mus musculus; experiment: Anti-inflammatory activity on the mice ears using antiinflammatory assay (TPAEE); type: functional

Work on CCCCCCCCCCCCc1cccc([C@@H](O)[C@@H](N)CO)c1 yielded an IC50 (Protein kinase C (PKC) [1]) of 3.7 µM and an IC50 (Protein kinase C (PKC) [2]) of 17.3 µM.

With CCCCCCCCCCCCC/C=C/[C@@H](O)[C@@H](N)CO [SPHINGOSINE] the IC50 (Protein kinase C (PKC) [1]) was 6.7 µM, the IC50 (Protein kinase C (PKC) [2]) was 23.4 µM and the ED50 (Mus musculus) was 0.31 mg ear-1.

CCCCCCCCCCC#Cc1csc([C@@H](O)[C@@H](N)CO)n1 showed an IC50 (Protein kinase C (PKC) [2]) of 15.2 µM.

CCCCCCCCCCC#Cc1cc([C@@H](O)[C@@H](N)CO)cs1 showed an IC50 (Protein kinase C (PKC) [2]) of 34.5 µM.

With CCCCCCCCCCCc1cccc([C@@H](O)[C@@H](N)CO)n1 the IC50 (Protein kinase C (PKC) [1]) was 10 µM.

With CCCCCCCCCCCOc1cccc([C@@H](O)[C@@H](N)CO)c1 the IC50 (Protein kinase C (PKC) [2]) was 24.1 µM.

With CCCCCCCCCC#Cc1cccc([C@@H](O)[C@@H](N)CO)n1 the IC50 (Protein kinase C (PKC) [1]) was 10 µM.

CCCCCCCCCC/C=C/c1csc([C@@H](O)[C@@H](N)CO)c1 was tested, and the IC50 (Protein kinase C (PKC) [1]) was 5 µM.

CCCCCCCCCCCC#Cc1ccc([C@@H](O)[C@@H](N)CO)s1 was tested, and the IC50 (Protein kinase C (PKC) [1]) was 3.5 µM.

CCCCCCCCCCCC(=O)c1cccc([C@@H](O)[C@@H](N)CO)c1 was tested, and the IC50 (Protein kinase C (PKC) [2]) was 20.7 µM.

For CCCCCCCCCCc1cccc([C@@H](O)[C@@H](N)CO)n1, the IC50 (Protein kinase C (PKC) [1]) was 30.5 µM.

CCCCCCCCc1cccc([C@@H](O)[C@@H](N)CO)n1 was tested, and the IC50 (Protein kinase C (PKC) [1]) was > 100 µM.

With CCCCCCCCCCC#Cc1cccc([C@@H](O)[C@@H](N)CO)c1 the IC50 (Protein kinase C (PKC) [1]) was 2.7 µM, the IC50 (Protein kinase C (PKC) [2]) was 22.2 µM and the ED50 (Mus musculus) was 0.34 mg ear-1.

Work on CCCCCCCCCCC#Cc1ccc([C@@H](O)[C@@H](N)CO)s1 yielded an IC50 (Protein kinase C (PKC) [1]) of 2.9 µM, an IC50 (Protein kinase C (PKC) [2]) of 26.2 µM and an ED50 (Mus musculus) of 0.24 mg ear-1.

CCCCCCCCCC#Cc1cccc([C@@H](O)[C@@H](N)CO)c1 gave an IC50 (Protein kinase C (PKC) [1]) of 9.7 µM.

Work on N[C@@H](CO)[C@H](O)c1cccc(C#CCCCCCc2ccccc2)n1 yielded an IC50 (Protein kinase C (PKC) [1]) of 15.9 µM.

For CCCCCCCCCCCCCCCCc1cccc([C@@H](O)[C@@H](N)CO)n1, the IC50 (Protein kinase C (PKC) [1]) was 4.5 µM.

With CCCCCCCCCC#Cc1ccc([C@@H](O)[C@@H](N)CO)s1 the IC50 (Protein kinase C (PKC) [1]) was 4.7 µM.

With CCCCCCCCCCc1cc([C@@H](O)[C@@H](N)CO)on1 the IC50 (Protein kinase C (PKC) [1]) was 43.9 µM.

CCCCCCCCCCCCc1csc([C@@H](O)[C@@H](N)CO)c1 was tested, and the IC50 (Protein kinase C (PKC) [2]) was 13.3 µM.

CCCCCCCCCc1ccc([C@@H](O)[C@@H](N)CO)s1 showed an IC50 (Protein kinase C (PKC) [1]) of 10 µM.

CCCCCCCCCCCCc1cccc([C@@H](O)[C@@H](N)CO)n1 gave an IC50 (Protein kinase C (PKC) [1]) of 10.9 µM.

With CCCCCCCCCCCCc1ccc([C@@H](O)[C@@H](N)CO)s1 the IC50 (Protein kinase C (PKC) [1]) was 14 µM.

CCCCCCCCCCCC(=O)c1csc([C@@H](O)[C@@H](N)CO)c1 showed an IC50 (Protein kinase C (PKC) [2]) of 22.4 µM.

Molecule CCCCCCCCC#Cc1cccc([C@@H](O)[C@@H](N)CO)n1 has an IC50 (Protein kinase C (PKC) [1]) of 13.3 µM.

For CCCCCCCCCCCC(=O)c1ccc([C@@H](O)[C@@H](N)CO)s1, the IC50 (Protein kinase C (PKC) [2]) was 22.4 µM.

With N[C@@H](CO)[C@H](O)c1ccc(C#CCCCCc2ccccc2)s1 the IC50 (Protein kinase C (PKC) [1]) was 36 µM.

For CCCCCCCCCCCCc1cc([C@@H](O)[C@@H](N)CO)on1, the IC50 (Protein kinase C (PKC) [1]) was 9.1 µM.

CCCCCCCCCCC#Cc1csc([C@@H](O)[C@@H](N)CO)c1 showed an IC50 (Protein kinase C (PKC) [1]) of 10.8 µM, an IC50 (Protein kinase C (PKC) [2]) of 23.7 µM and an ED50 (Mus musculus) of 0.23 mg ear-1.

CCCCCCCC#Cc1ccc([C@@H](O)[C@@H](N)CO)s1 was tested, and the IC50 (Protein kinase C (PKC) [1]) was 19.9 µM.
